Our source for the IC50 values is ChEMBL document CHEMBL1155550, “Rationale design of biotinylated antimalarial endoperoxide carbon centered radical prodrugs for applications in proteomics” (J Med Chem, 2010).

In general, IC50 refers to the midpoint of a concentration-inhibition curve.

The first assay deals with Plasmodium falciparum. The experiment in a line: Antiplasmodial activity against chloroquine-sensitive Plasmodium falciparum 3D7 infected in human erythrocytes assessed as inhibition of [3H]hypoxanthine incorporation after 48 hrs by liquid scintillation counting. The class given is functional, organism-based.
Conditions: not given; call rule not given here
For the compound `O=C(CCCC[C@@H]1SC[C@@H]2NC(=O)N[C@@H]21)NS(=O)(=O)c1cccc(CNC(=O)C23CC4CC(C2)[C@]2(OO[C@]5(CCCCC5)O2)C(C4)C3)c1`, the IC50 entry is on record as “Not Active”.

Staying with this assay, now noted: Plasmodium falciparum, 3D7; read-out: IC50.
Consider `CC(C)(C)OC(=O)NCc1cccc(CNC(=O)C23CC4CC(C2)[C@]2(OO[C@]5(CCCCC5)O2)C(C4)C3)c1`, for which the half-maximal inhibitory concentration (IC50) worked out at 5.1 nM. Regarding `C[C@H]1[C@@H](CC(=O)NCc2cccc(CNC(=O)CCSSCCNC(=O)CCCC[C@@H]3SC[C@@H]4NC(=O)N[C@@H]43)c2)O[C@@H]2O[C@]3(C)CC[C@H]4[C@H](C)CC[C@@H]1[C@@]24OO3`, the IC50 is 91 nM.

Take `C[C@H]1[C@@H](CCOC(=O)NCCCCC[C@@H]2SC[C@@H]3NC(=O)N[C@@H]32)O[C@@H]2O[C@]3(C)CC[C@H]4[C@H](C)CC[C@@H]1[C@@]24OO3`: the half-maximal inhibitory concentration (IC50) is 1.6 nM. Still for that read-out and setting: under `O=C(NCCCC[C@H]1SC[C@H]2NC(=O)N[C@H]21)NCc1cccc(CNC(=O)C23CC4CC(C2)[C@]2(OO[C@]5(CCCCC5)O2)C(C4)C3)c1` stands 2.4 nM; under `COC(=O)C12CC3CC(C1)[C@]1(OO[C@]4(CCCCC4)O1)C(C3)C2`, 5.7 nM.

Regarding `OCC12CC3CC(C1)[C@]1(OO[C@]4(CCCCC4)O1)C(C3)C2`, the IC50 was determined as 8.4 nM. On the same count and under the same terms, to `O=C(O)C12CC3CC(C1)[C@]1(OO[C@]4(CCCCC4)O1)C(C3)C2` belongs 150 nM. Still for that read-out and setting: to `O=C(NCc1cccc(CNC(=O)C23CC4CC(C2)[C@]2(OO[C@]5(CCCCC5)O2)C(C4)C3)c1)OCC1c2ccccc2-c2ccccc21` belongs 27 nM. Still for that read-out and setting: to `C[C@H]1[C@@H](CC(=O)NCc2cccc(CNC(=O)c3ccc(S(=O)(=O)NC(=O)CCCC[C@@H]4SC[C@@H]5NC(=O)N[C@@H]54)cc3)c2)O[C@@H]2O[C@]3(C)CC[C@H]4[C@H](C)CC[C@@H]1[C@@]24OO3` belongs above 1000 nM.
